Source: US5342851A, “Substituted thiazole derivatives useful as platelet aggregation inhibitors” (McNeil-PPC, Inc., priority 1992, dated 1994)
Counter-ions that a name gives are not always drawn. Like-named read-outs stand apart in the source and are kept apart here.

Tests used:
[1] = tested on: activated platelets (125I-fibrinogen binding); test: Fibrinogen Binding (125I-fibrinogen binding to activated platelets); conditions: read-out: Binding (IC50, concentration of compound which provides 50% fibrinogen binding); thrombin-stimulated platelets; 0.15 μM 125I-fibrinogen
Method: The compounds of the invention as identified above are evaluated for platelet aggregation inhibition activity as indicated by the percentage of nonaggregated platelets which are available for binding in accordance with the following procedure.
Briefly, 40 mL of PRP (obtained from Biological Specialty Corp., Lansdale, Pa.) are centrifuged at 120×g to remove contaminating red cells. Aspirin (50 μM) is added and the PRP is incubated at 37° C. for 20 minutes. […] Platelets are concentrated by a 300×g centrifugation (10 minutes) and the pellet is resuspended in 4 mL. of Tyrode's buffer. The platelet suspension (4 mL) is gel-filtered through a Sepharose-2B column (50 mL bed volume). […] The binding reaction is performed in polystyrene tubes (final volume […]). Reagents are added in the following order: 80 mL of Tyrode's buffer, 50 mL of CaCl2 (final concentration (f.c.) […]) and 50 mL of thrombin (f.c. 0.1 unit/mL). The platelet suspension is then added and the mixture is allowed to incubate at room temperature for 2 minutes. Hirudin (50 mL, f.c. 0.5 unit/mL) is immediately added to prevent the catalytic activity of thrombin. […] The mixture is incubated for 10 minutes at room temperature. To terminate the binding reaction the platelets are sedimented (10,000×g for 3 minutes) through silicone oil (3:1 hi-phenol 550/methyl silicone 200, W. F. Nye, Inc., New Bedford, Mass.), in an Eppendorf centrifuge.
The amount of platelet radioactivity measured in the presence of nonlabeled fibrinogen (4 mg/mL) is considered the nonspecific binding. All samples are repeated in triplicate.
Positive percentages of fibrinogen binding indicates higher activity for inhibiting platelet aggregation since only non-aggregated or free platelets are available for fibrinogen binding.

[2] = tested on: platelets (gel-filtered platelet rich plasma); test: Platelet Aggregation Inhibition Activity (agonist thrombin or ADP, light transmission); type: cell-based
Method: The percentage of platelet aggregation is calculated as an increase in light transmission of drug treated platelet concentrate versus control treated platelet concentrate. Blood is obtained from drug free, normal donors into tubes containing 0.13M sodium citrate (two sources are routinely used: platelet concentrate obtained from Biological Specialty Corp., Lansdale, Pa. or whole blood obtained from donors). Platelet rich plasma (PRP) is collected by centrifugation of the concentrate or whole blood at 130×g for 15 minutes at 25° C. The PRP (5 mL) is gel filtered through Sepharose 2B (bed volume 50 mL), and the platelet count is adjusted to 2×10^7 platelets per sample. The following constituents are added to a siliconized cuvette: 250 μL of the concentrated platelet filtrate, 100 μL of Tyrode's buffer (0.14M NaCl, 0.0027M KCl, 0.012M NaHCO3, 0.76 mM Na2 HPO4, 0.0055M glucose and 2 mg/mL BSA pH 7.4), 50 μL of 2 mM calcium and test drug (50 mL).
Aggregation is monitored in a dual channel Chrono-log Aggregometer for three minutes following the addition of agonist (thrombin 50 μL of 1 unit/mL, or ADP 50 μL of 100 μM). The final assay volume is 500 μL. The reaction takes place at 37° C. The peak aggregation response is calculated as the increase in light transmission units over a three minute period. The difference of the increase in light transmission between control and drug treated platelets is then expressed as a percent of the nondrug treated controls. […] A percentage increase in light transmission indicates platelet aggregation inhibition activity for the tested compound.

[3] = read-out: Aggregation (IC50, concentration at which the increase in light transmission equals 50%), thrombin or ADP agonist, 37° C., three minutes
[4] = Homo sapiens, thrombin or ADP agonist, read-out: Aggregation (percentage increase in light transmission)

Row | Structure (SMILES) | IC50 [1] [µM] | IC50 [2, 3] [µM] | IC50 ([2]; read-out: Aggregation (IC50, concentration at which the increase in light transmission equals 50%)) [µM] | inhibition at 20 µM [2, 4] [%] | inhibition at 50 µM ([2]; Homo sapiens, at 50 μM, thrombin or ADP agonist, read-out: Aggregation (percentage increase in light transmission)) [%]
1 | CCCCN(CCCC)CCCNC(=O)c1cnn(-c2nc(-c3ccc(C)cc3)cs2)c1C(F)(F)F [Example 45] | 8.5 | 45 |  |  | 
2 | N=C(N)NCCCNC(=O)c1cnn(-c2nc(-c3cccc(C(F)(F)F)c3)cs2)c1C(F)(F)F [Example 128, 2-[4-(3-Guanidinopropylcarbamoyl)-5-(trifluoromethyl)-pyrazol-1-yl]-4-(3-trifluoromethylphenyl)thiazole Nitrate] | 17.5 |  | 118 |  | 
3 | CCN(CC)CCCNC(=O)c1ccc(-c2csc(-c3ccc(C(F)(F)F)cc3)n2)cc1 [Example 150] | 4.4 | 5 |  |  | 
4 | CCN(CC)CCCNC(=O)c1ccc(-c2csc(-c3ccc(C)cc3)n2)cc1 [Example 151] | 19 | 16.7 |  |  | 
5 | CCN(CC)CCCNC(=O)c1ccc(-c2csc(-c3ccc(C(C)(C)C)cc3)n2)cc1 [Example 153] | 4.3 | 15.3 |  |  | 
6 | Cc1ccc(-c2nc(-c3ccc(C(=O)NCCCN(C)C)cc3)cs2)cc1 [Example 154] | 10 | 7.2 |  |  | 
7 | CN(C)CCCNC(=O)c1ccc(-c2csc(-c3ccc(C(C)(C)C)cc3)n2)cc1 [Example 156] | 12 | 14.2 |  |  | 
8 | O=C(NCCN1CCCCC1)c1ccc(-c2csc(-c3ccccc3)n2)cc1 [Example 158] | 5.2 | 8.7 |  |  | 
9 | Cc1ccc(-c2nc(-c3ccc(C(=O)NCCCN4CCCC4=O)cc3)cs2)cc1 [Example 170] | 10.8 |  |  | 90 | 
10 | CN(C)CCNC(=O)c1ccc(-c2csc(-c3ccc(C(F)(F)F)cc3)n2)cc1 [Example 174] | 1.8 |  |  | 85 | 
11 | CCN(CC)CCNC(=O)c1ccc(-c2csc(-c3ccc(C)cc3)n2)cc1 [Example 176] | 2.5 | 4 |  |  | 
12 | CCN(CC)CCCCNC(=O)c1ccc(-c2csc(-c3ccc(Cl)cc3)n2)cc1 [Example 179] | 2.7 | 5.8 |  |  | 
13 | CC(C)N(CCCCNC(=O)c1ccc(-c2csc(-c3ccc(C(F)(F)F)cc3)n2)cc1)C(C)C [Example 189] |  |  |  | 86 | 
14 | NCCNC(=O)c1ccc(-c2csc(-c3ccc(C(F)(F)F)cc3)n2)cc1 [Example 196] | 6 | 3.7 |  |  | 
15 | CCN(CC)CCCNC(=O)c1ccc(-c2csc(COc3ccc(Cl)cc3)n2)cc1 [Example 206] |  | 5.1 |  |  | 
16 | O=C(NCCCBr)c1ccc(-c2csc(-c3ccc(C(F)(F)F)cc3)n2)cc1 [Example 209] | 7.8 | 5.5 |  |  | 
17 | O=C(NCCCNC1CCCCC1)c1ccc(-c2csc(-c3ccc(Cl)cc3)n2)cc1 [Example 213] | 9.2 | 10 |  |  | 
18 | CCCCNCCCNC(=O)c1ccc(-c2csc(-c3ccc(C(F)(F)F)cc3)n2)cc1 [Example 218] |  |  |  | 90 | 
19 | CCCNCCCNC(=O)c1ccc(-c2csc(-c3ccc(C(F)(F)F)cc3)n2)cc1 [Example 221] | 5.8 |  |  | 85 | 
20 | CCCCNCCCNC(=O)c1ccc(-c2csc(-c3ccc(Cl)cc3)n2)cc1 [Example 224] | 3.3 | 6.1 |  |  | 
21 | CCCCNCCCNC(=O)c1ccc(-c2csc(-c3ccc(OC)cc3)n2)cc1 [Example 226] | 4.3 | 3.8 |  |  | 
22 | Cn1c(C(=O)NCCCN)ccc1-c1nc(-c2ccccc2)c(C(=O)O)s1 [Example 237, 2-[2-(4-Aminopropylcarbamoyl)-1-methyl-1H-pyrrol-5-yl]-4-phenyl-1,3-thiazole-5-carboxylic acid monohydrochloride monohydrate] |  |  |  |  | 68

More lines, main results first:

Row | IC50 [1] [µM] | IC50 [2, 3] [µM] | Structure (SMILES) | IC50 ([2]; read-out: Aggregation (IC50, concentration at which the increase in light transmission equals 50%)) [µM] | inhibition at 20 µM [2, 4] [%] | inhibition at 50 µM ([2]; Homo sapiens, at 50 μM, thrombin or ADP agonist, read-out: Aggregation (percentage increase in light transmission)) [%]
23 | 6 |  | CCN(CC)CCNC(=O)c1cnn(-c2nc(-c3cccc(C(F)(F)F)c3)cs2)c1C(F)(F)F [Example 34] |  |  | 
24 | 50 |  | CN(C)CCCNC(=O)c1cnn(-c2nc(-c3ccc([N+](=O)[O-])cc3)cs2)c1C(F)(F)F [Example 36] |  |  | 
25 | 4 | 15 | CCN(CC)CCCNC(=O)c1cnn(-c2nc(-c3cccc(C(F)(F)F)c3)cs2)c1C(F)(F)F [Example 37] |  |  | 
26 | 75 | 56 | CCCCN(CCCC)CCCNC(=O)c1cnn(-c2nc(-c3cccc(C(F)(F)F)c3)cs2)c1C(F)(F)F [Example 38] |  |  | 
27 | 16 | 30 | CN(C)CCCNC(=O)c1cnn(-c2nc(-c3cccc(C(F)(F)F)c3)cs2)c1C(F)(F)F [Example 39] |  |  | 
28 | 65 | 30 | CCN(CC)CCCNC(=O)c1cnn(-c2nc(-c3cccc(OC)c3)cs2)c1C(F)(F)F [Example 40] |  |  | 
29 | 70 | 6 | CCN(CC)CCCNC(=O)c1cnn(-c2nc(-c3ccc(C)cc3)cs2)c1C(F)(F)F [Example 43] |  |  | 
30 | 11.3 | 2.7 | CCN(CC)CCCNC(=O)c1cnn(-c2nc(-c3cccc(C(F)(F)F)c3)c(Br)s2)c1C(F)(F)F [Example 46] |  |  | 
31 | 50 | 30 | CCN(CC)CCCNC(=O)c1cnn(-c2nc(-c3ccccc3)cs2)c1C(F)(F)F [Example 50] |  |  | 
32 | 8.3 | 4.6 | NCCCCNC(=O)c1cnn(-c2nc(-c3cccc(C(F)(F)F)c3)cs2)c1C(F)(F)F [Example 62] |  |  | 
33 | 10 | 13 | O=C(NCCCN1CCCCC1)c1cnn(-c2nc(-c3cccc(C(F)(F)F)c3)cs2)c1C(F)(F)F [Example 89, 2-[4-[3-(N-Piperidino)propylcarbamoyl]-5-(trifluoromethyl)pyrazol-1-yl]-4-(3-trifluoromethylphenyl)thiazole] |  |  | 
34 | 14 | 15 | O=C(NCCCN1CCCC1)c1cnn(-c2nc(-c3cccc(C(F)(F)F)c3)cs2)c1C(F)(F)F [Example 90] |  |  | 
35 | 10 | 5 | Cc1c(C(=O)NCCCN2CCCCC2)cnn1-c1nc(-c2cccc(C(F)(F)F)c2)cs1 [Example 91] |  |  | 
36 | 25 | 6 | O=C(NCCCNC1CCCCC1)c1cnn(-c2nc(-c3cccc(C(F)(F)F)c3)cs2)c1C(F)(F)F [Example 102] |  |  | 
37 | 44 | 8 | O=C(NCCCNC1CCCCC1)c1cnn(-c2nc(-c3ccc(C(F)(F)F)cc3)cs2)c1C(F)(F)F [Example 105] |  |  | 
38 | 10 | 3.1 | CCCCNCCCNC(=O)c1cnn(-c2nc(-c3cccc(C(F)(F)F)c3)cs2)c1C(F)(F)F [Example 113] |  |  | 
39 | 10 | 7 | CCCNCCCNC(=O)c1cnn(-c2nc(-c3cccc(C(F)(F)F)c3)cs2)c1C(F)(F)F [Example 114] |  |  | 
40 | 23 | 13 | CN1CCN(CCCNC(=O)c2cnn(-c3nc(-c4cccc(C(F)(F)F)c4)cs3)c2-c2ccccc2)CC1 [Example 120] |  |  | 
41 | 15 | 6 | NCCCNC(=O)c1cnn(-c2nc(-c3cccc(C(F)(F)F)c3)cs2)c1C(F)(F)F [Example 121, 2-[4-(3-Aminopropylcarbamoyl)-5-(trifluoromethyl)pyrazol-1-yl]-4-(3-trifluoromethylphenyl)thiazole Monohydrochloride] |  |  | 
42 | 10 | 14.7 | NCCCNC(=O)c1cnn(-c2nc(-c3cccc(Cl)c3)cs2)c1C(F)(F)F [Example 122] |  |  | 
43 | 17 | 17 | Cc1ccc(-c2csc(-n3ncc(C(=O)NCCCN)c3C(F)(F)F)n2)cc1 [Example 123] |  |  | 
44 | 5.5 | 3.2 | NCCCNC(=O)c1cnn(-c2nc(-c3cccc(C(F)(F)F)c3)c(Br)s2)c1C(F)(F)F [Example 124] |  |  | 
45 | 17 | 21 | FC(F)(F)c1cccc(-c2csc(-n3ncc(COCCCN4CCCCC4)c3C(F)(F)F)n2)c1 [Example 136, 2-[4-[3-(N-Piperidino)propoxymethyl]-5-(trifluoromethyl)pyrazol-1-yl]-4-(3-trifluoromethylphenyl)thiazole Oxalate] |  |  | 
46 | 3.4 | 5 | O=C(NCCCN1CCCCC1)c1ccc(-c2csc(-c3ccc(Cl)cc3)n2)cc1 [Example 211] |  |  | 
47 | 13.5 |  | Cn1c(C(=O)NCCCNC2CCCCC2)ccc1-c1nc(-c2cccc(C(F)(F)F)c2)cs1 [Example 236, 2-[2-(4-Cyclohexylaminopropylcarbamoyl)-1-methyl-1H-pyrrol-5-yl]-4(3-trifluoromethylphenyl)thiazole] |  |  | 
